Measurements taken from patent US20230062119A1, “USE OF BIOMARKERS IN IDENTIFYING PATIENTS THAT WILL BE RESPONSIVE TO TREATMENT WITH A PRMT5 INHIBITOR” (Merck Sharp & Dohme LLC, priority 2019, published 2023).
Like-named read-outs stand apart in the source and are kept apart here.

Molecular target: T1, Full-length (FL)-PRMT5-MEP50 enzyme complex (Homo sapiens, UniProt O14744)
T1 construct: Full-length (FL)-PRMT5-MEP50 enzyme complex (recombinant proteins from baculovirus-transfected Sf21 cells: FL-PRMT5; MW=73837 kDa and FL-MEP50; MW=38614); made in house; host or cells: baculovirus-transfected Sf21 insect cells
Test: PRMT5-MEP50 Enzyme Methylation Assay
Assay type: biochemical
Settings: 1.0 nM PRMT5-MEP50, 75 nM biotinylated peptide, 15 μM SAM
How it was run: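 Compound was pre-incubated 60 min at 37°C with 1.0 nM enzyme and 15 μM SAM (final) in 50 mM Bicine pH 8.0, then 75 nM biotinylated H4R3(Me1) peptide was added and reacted 150 min; twenty-point 1:2 titration from 100000 nM, 1% DMSO. Formic acid quench; SAMDI mass spectrometry measured Me1-to-Me2 conversion, EC50 by 4- or 7-parameter regression.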

[1] = one EC50: 4 parameters single site sigmoidal model, EC50 1: first value of 7 parameters biphasic model, read-out: Enzyme Methylation Assay (EC50 or EC50 1)
[2] = second EC50 of 7 parameters biphasic model, read-out: Enzyme Methylation Assay (EC50 2)

T1 sequence (O14744 whole entry): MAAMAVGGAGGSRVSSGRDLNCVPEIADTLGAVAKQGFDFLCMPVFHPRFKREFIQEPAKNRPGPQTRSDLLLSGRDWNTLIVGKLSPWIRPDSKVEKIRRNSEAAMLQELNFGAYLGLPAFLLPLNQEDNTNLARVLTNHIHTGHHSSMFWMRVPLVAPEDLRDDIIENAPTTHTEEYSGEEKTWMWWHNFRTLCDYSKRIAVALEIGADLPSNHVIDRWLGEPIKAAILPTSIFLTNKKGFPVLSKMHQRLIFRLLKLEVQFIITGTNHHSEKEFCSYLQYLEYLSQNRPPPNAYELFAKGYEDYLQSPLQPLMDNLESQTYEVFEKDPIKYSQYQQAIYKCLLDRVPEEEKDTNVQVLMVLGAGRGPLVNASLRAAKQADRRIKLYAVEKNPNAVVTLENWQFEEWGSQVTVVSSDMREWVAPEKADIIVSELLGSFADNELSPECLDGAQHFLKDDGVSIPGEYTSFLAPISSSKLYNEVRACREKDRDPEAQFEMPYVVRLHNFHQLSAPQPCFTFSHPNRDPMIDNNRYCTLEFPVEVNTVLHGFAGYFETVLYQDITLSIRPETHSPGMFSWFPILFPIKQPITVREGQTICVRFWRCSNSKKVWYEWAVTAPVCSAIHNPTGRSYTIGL
T1 sequence (Q9BQA1 whole entry partner): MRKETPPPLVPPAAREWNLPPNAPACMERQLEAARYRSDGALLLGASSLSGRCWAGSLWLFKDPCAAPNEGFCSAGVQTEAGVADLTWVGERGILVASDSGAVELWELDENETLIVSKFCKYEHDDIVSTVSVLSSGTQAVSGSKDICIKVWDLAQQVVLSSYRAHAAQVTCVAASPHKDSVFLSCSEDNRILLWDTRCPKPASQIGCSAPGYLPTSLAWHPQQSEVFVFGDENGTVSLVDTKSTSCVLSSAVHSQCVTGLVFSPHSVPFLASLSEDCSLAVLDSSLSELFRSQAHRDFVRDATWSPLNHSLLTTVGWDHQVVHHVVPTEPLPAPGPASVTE

| Structure (SMILES) | EC50 [1] [nM] | EC50 [2] [nM] |
| --- | --- | --- |
| Nc1nc2cc(C[C@@H]3CC[C@@]4(O)[C@@H]3O[C@@H](n3ccc5c(N)ncnc53)[C@@H]4O)cc(F)c2cc1Cl [Example 21, (2R,3R,3aS,6S,6aR)-6-[(2-amino-3-chloro-5-fluoroquinolin-7-yl)methyl]-2-(4-amino-7H-pyrrolo[2,3-d]pyrimidin-7-yl)hexahydro-3aH-cyclopenta[b]furan-3,3a-diol] | 0.8 |  |
| Nc1nc2cc(C[C@@H]3CC[C@@]4(O)[C@@H]3O[C@@H](n3ccc5c(N)ncnc53)[C@@H]4O)ccc2cc1Cl [Example 67, (2R,3R,3aS,6S,6aR)-6-((2-amino-3-chloroquinolin-7-yl)methyl)-2-(4-amino-7H-pyrrolo[2,3-d]pyrimidin-7-yl)hexahydro-3aH-cyclopenta[b]furan-3,3a-diol] | 0.8 |  |
| Cc1nc(N)c2ccn([C@@H]3O[C@@H]4[C@@H](Oc5ccc6cc(Br)c(N)nc6c5)CC[C@]4(O)[C@H]3O)c2n1 [Example 63, (2R,3R,3aS,6S,6aR)-2-(4-amino-2-methyl-7H-pyrrolo[2,3-d]pyrimidin-7-yl)-6-((2-amino-3-bromoquinolin-7-yl)oxy)hexahydro-3aH-cyclopenta[b]furan-3,3a-diol] | 0.4 |  |
| Cc1cn([C@@H]2C[C@@H]3[C@H](Cc4cc(F)c5cc(F)c(N)nc5c4)CC[C@]3(O)[C@H]2O)c2ncnc(N)c12 [Example 35, (1S,2R,3aR,4S,6aR)-4-[(2-amino-3,5-difluoroquinolin-7-yl)methyl]-2-(4-amino-5-methyl-7H-pyrrolo[2,3-d]pyrimidin-7-yl)hexahydropentalene-1,6a(1H)-diol] | 0.5 |  |
| Cc1ncnc2c1ccn2[C@@H]1C[C@@H]2[C@@H](Cc3ccc4cc(F)c(N)nc4c3)CC[C@]2(O)[C@H]1O [Example 18, (1S,2R,3aR,4R,6aR)-4-((2-amino-3-fluoroquinolin-7-yl)methyl)-2-(4-methyl-7H-pyrrolo[2,3-d]pyrimidin-7-yl)hexahydropentalene-1,6a(1H)-diol] | 0.4 | 229 |
| Cc1cn([C@@H]2C[C@@H]3[C@H](Cc4ccc5cc(Br)c(N)nc5c4)CC[C@]3(O)[C@H]2O)c2ncnc(N)c12 [Example 40, (1S,2R,3aR,4S,6aR)-4-((2-amino-3-bromoquinolin-7-yl)methyl)-2-(4-amino-5-methyl-7H-pyrrolo[2,3-d]pyrimidin-7-yl)hexahydropentalene-1,6a(1H)-diol] | 0.4 |  |
| Nc1nc2cc(C[C@@H]3CC[C@@]4(O)[C@@H]3O[C@@H](n3ccc5c(N)ncnc53)[C@@H]4O)c(F)cc2cc1F [Example 27, (2R,3R,3aS,6S,6aR)-6-[(2-amino-3,6-difluoroquinolin-7-yl)methyl]-2-(4-amino-7H-pyrrolo[2,3-d]pyrimidin-7-yl)hexahydro-3aH-cyclopenta[b]furan-3,3a-diol] | 0.4 |  |
| Nc1nc2cc(C[C@@H]3CC[C@@]4(O)[C@@H]3O[C@@H](n3cc(C(F)F)c5c(N)ncnc53)[C@@H]4O)ccc2cc1Br [Example 43, (2R,3R,3aS,6S,6aR)-6-[(2-amino-3-bromoquinolin-7-yl)methyl]-2-[4-amino-5-(difluoromethyl)-7H-pyrrolo[2,3-d]pyrimidin-7-yl]hexahydro-3aH-cyclopenta[b]furan-3,3a-diol] | 0.4 |  |
| C[C@@]1(O)[C@@H](COc2ccc3cc(Br)c(N)nc3c2)O[C@@H](n2ccc3c(N)ncnc32)[C@@H]1O [Example 10, (2R,3S,4R,5R)-2-(((2-amino-3-bromoquinolin-7-yl)oxy)methyl)-5-(4-amino-7H-pyrrolo[2,3-d]pyrimidin-7-yl)-3-methyltetrahydrofuran-3,4-diol] | 0.5 | 22 |
| Cc1cn([C@@H]2O[C@@H]3[C@H](Cc4ccc5cc(Br)c(N)nc5c4)CC[C@]3(O)[C@H]2O)c2ncnc(N)c12 [Example 70, (2R,3R,3aS,6S,6aR)-6-((2-amino-3-bromoquinolin-7-yl)methyl)-2-(4-amino-5-methyl-7H-pyrrolo[2,3-d]pyrimidin-7-yl)hexahydro-3aH-cyclopenta[b]furan-3,3a-diol 2,2,2-trifluoroacetate] | 0.4 |  |
| Nc1nc2cc(C[C@@H]3CC[C@@]4(O)[C@@H]3C[C@@H](n3cc(F)c5c(N)ncnc53)[C@@H]4O)ccc2cc1Cl [Example 34, (1S,2R,3aR,4S,6aR)-4-((2-amino-3-chloroquinolin-7-yl)methyl)-2-(4-amino-5-fluoro-7H-pyrrolo[2,3-d]pyrimidin-7-yl)hexahydropentalene-1,6a(1H)-diol] | 0.3 |  |
| Cc1nc(N)c2c(F)cn([C@@H]3O[C@@H]4[C@H](Cc5ccc6cc(F)c(N)nc6c5)CC[C@]4(O)[C@H]3O)c2n1 [Example 44, (2R,3R,3aS,6S,6aR)-6-((2-amino-3-fluoroquinolin-7-yl)methyl)-2-(4-amino-5-fluoro-2-methyl-7H-pyrrolo[2,3-d]pyrimidin-7-yl)hexahydro-3aH-cyclopenta[b]furan-3,3a-diol 2,2,2-trifluoroacetate] | 0.4 |  |
| CNc1ncnc2c1ccn2[C@@H]1O[C@@H]2[C@@H](Oc3ccc4cc(Br)c(N)nc4c3)CC[C@]2(O)[C@H]1O [Example 94, (2R,3R,3aS,6S,6aR)-6-((2-amino-3-bromoquinolin-7-yl)oxy)-2-(4-(methylamino)-7H-pyrrolo[2,3-d]pyrimidin-7-yl)hexahydro-3aH-cyclopenta[b]furan-3,3a-diol] | 0.8 |  |
| Cc1ncnc2c1ccn2[C@@H]1O[C@@H]2[C@H](Cc3ccc4cc(Cl)c(N)nc4c3F)CC[C@]2(O)[C@H]1O [Example 22, (2R,3R,3aS,6S,6aR)-6-[(2-amino-3-chloro-8-fluoroquinolin-7-yl)methyl]-2-(4-methyl-7H-pyrrolo[2,3-d]pyrimidin-7-yl)hexahydro-3aH-cyclopenta[b]furan-3,3a-diol] | 1 |  |

Next, values leading:

| EC50 [1] [nM] | EC50 [2] [nM] | Structure (SMILES) |
| --- | --- | --- |
| 0.8 |  | Cc1cc2ccc(C[C@@H]3CC[C@@]4(O)[C@@H]3O[C@@H](n3ccc5c(N)ncnc53)[C@@H]4O)cc2nc1N [Example 125, (2R,3R,3aS,6S,6aR)-6-((2-amino-3-methylquinolin-7-yl)methyl)-2-(4-amino-7H-pyrrolo[2,3-d]pyrimidin-7-yl)hexahydro-3aH-cyclopenta[b]furan-3,3a-diol] |
| 2.4 | 661 | C[C@@]1(CCc2ccc3cc(F)c(N)nc3c2)C[C@@H](n2ccc3c(N)ncnc32)[C@H](O)[C@@H]1O [Example 116, (1S,2R,3R,5R)-3-(2-(2-amino-3-fluoroquinolin-7-yl)ethyl)-5-(4-amino-7H-pyrrolo[2,3-d]pyrimidin-7-yl)-3-methylcyclopentane-1,2-diol] |
| 0.3 | 21.9 | C[C@@]1(O)[C@@H](COc2ccc3ccc(N)nc3c2)C[C@@H](n2ccc3cncnc32)[C@@H]1O [Example 105, (1R,2S,3R,5R)-5-(((2-aminoquinolin-7-yl)oxy)methyl)-1-methyl-3-(7H-pyrrolo[2,3-d]pyrimidin-7-yl)cyclopentane-1,2-diol] |
| 0.4 |  | CNc1ncnc2c1ccn2[C@@H]1C[C@@H]2[C@H](Cc3ccc4cc(Br)c(N)nc4c3)CC[C@]2(O)[C@H]1O [Example 97, (1S,2R,3aR,4S,6aR)-4-((2-amino-3-bromoquinolin-7-yl)methyl)-2-(4-(methylamino)-7H-pyrrolo[2,3-d]pyrimidin-7-yl)hexahydropentalene-1,6a(1H)-diol] |
| 0.5 |  | Nc1nc2cc(C[C@@H]3OC[C@@]4(O)[C@@H]3O[C@@H](n3ccc5c(N)ncnc53)[C@@H]4O)ccc2cc1Br [Example 136, (2R,3R,3aS,6S,6aR)-6-((2-amino-3-bromoquinolin-7-yl)methyl)-2-(4-amino-7H-pyrrolo[2,3-d]pyrimidin-7-yl)tetrahydrofuro[3,4-b]furan-3,3a(4H)-diol] |
| 3.8 |  | Nc1ccc2ccc(O[C@H]3CC[C@@]4(O)[C@@H]3O[C@@H](n3ccc5c(N)ncnc53)[C@@H]4O)cc2n1 [Example 104, (2R,3R,3aS,6S,6aR)-2-(4-amino-7H-pyrrolo[2,3-d]pyrimidin-7-yl)-6-((2-aminoquinolin-7-yl)oxy)hexahydro-2H-cyclopenta[b]furan-3,3a-diol] |
| 0.6 | 32 | C[C@]1(COc2ccc3cc(Br)c(N)nc3c2)C[C@@H](n2ccc3c(N)ncnc32)[C@H](O)[C@@H]1O [Example 100, (1S,2R,3R,5R)-3-(((2-amino-3-bromoquinolin-7-yl)oxy)methyl)-5-(4-amino-7H-pyrrolo[2,3-d]pyrimidin-7-yl)-3-methylcyclopentane-1,2-diol] |
| 30.6 | 2660 | C[C@]1(COc2ccc3cc(Br)c(N)nc3c2)C[C@@H](n2ccc3c(N)ncnc32)[C@H](O)[C@]1(C)O [Example 111, (1R,2S,3R,5R)-5-(((2-amino-3-bromoquinolin-7-yl)oxy)methyl)-3-(4-amino-7H-pyrrolo[2,3-d]pyrimidin-7-yl)-1,5-dimethylcyclopentane-1,2-diol] |
| 1.7 | 1880 | C[C@@]1(O)[C@@H](COc2ccc3cccnc3c2)O[C@@H](n2ccc3c(N)ncnc32)[C@@H]1O [Example 99, (2R,3S,4R,5R)-5-(4-amino-7H-pyrrolo[2,3-d]pyrimidin-7-yl)-3-methyl-2-((quinolin-7-yloxy)methyl)tetrahydrofuran-3,4-diol] |
| 0.6 |  | C[C@]1(CCc2ccc3cc4c(nc3c2)NCC4)C[C@@H](n2ccc3c(N)ncnc32)[C@H](O)[C@@H]1O [Example 126, (1S,2R,3S,5R)-5-(4-amino-7H-pyrrolo[2,3-d]pyrimidin-7-yl)-3-(2-(2,3-dihydro-1H-pyrrolo[2,3-b]quinolin-7-yl)ethyl)-3-methylcyclopentane-1,2-diol] |
